In patent US11866430B2, “Naphthyridinone compounds useful as T cell activators” (priority 2018, dated 2024):
Like-named read-outs stand apart in the source and are kept apart here.

Legend:
human DGKζ [1] = molecular target: T1, human DGKζ (Homo sapiens (Human), UniProt Q13574); experiment: DGKζ assay (detergent/lipid micelle substrate); type: biochemical; settings: detergent/lipid micelle substrate; read-out: DGKζ IC50
Method in brief: (§1)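 Full-length human DGKα or DGKζ (C-terminal His tag, Sf9-expressed; 20 nM 4× stock) was preincubated 10 min at room temperature with PS/DAG octyl glucoside micelles in MOPS pH 7.5 buffer with MgCl2, CaCl2 and DTT. It was then started with ATP (300 uM addition) and run for 1 hr, with ADP-Glo luminescence read-out.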

human DGKα [2] = molecular target: T2, human DGKα (Homo sapiens (Human), UniProt P23743); experiment: DGKα LIPGLO assay (extruded liposome substrate); type: biochemical
T2 sequence (P23743 other isoform, or with tags, fused parts or gaps): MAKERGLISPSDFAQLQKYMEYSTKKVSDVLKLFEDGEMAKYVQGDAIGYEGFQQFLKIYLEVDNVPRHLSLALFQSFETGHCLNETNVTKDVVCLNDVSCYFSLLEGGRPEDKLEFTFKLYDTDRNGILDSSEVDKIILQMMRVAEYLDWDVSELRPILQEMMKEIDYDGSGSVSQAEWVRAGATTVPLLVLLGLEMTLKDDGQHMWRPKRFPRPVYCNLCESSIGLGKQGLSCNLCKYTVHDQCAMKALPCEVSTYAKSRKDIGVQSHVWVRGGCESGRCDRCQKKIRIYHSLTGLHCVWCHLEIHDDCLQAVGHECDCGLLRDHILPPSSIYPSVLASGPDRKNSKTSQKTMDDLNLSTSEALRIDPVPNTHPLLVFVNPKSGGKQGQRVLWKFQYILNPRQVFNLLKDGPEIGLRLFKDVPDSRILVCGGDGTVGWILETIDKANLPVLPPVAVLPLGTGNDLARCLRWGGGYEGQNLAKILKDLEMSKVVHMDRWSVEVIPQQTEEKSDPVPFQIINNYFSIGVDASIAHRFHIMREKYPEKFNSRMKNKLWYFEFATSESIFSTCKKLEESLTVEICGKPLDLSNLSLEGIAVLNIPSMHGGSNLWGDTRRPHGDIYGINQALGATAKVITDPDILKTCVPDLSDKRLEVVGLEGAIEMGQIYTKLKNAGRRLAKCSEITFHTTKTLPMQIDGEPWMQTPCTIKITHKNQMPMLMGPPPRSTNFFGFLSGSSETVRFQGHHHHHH
Method: The DGKα and DGKζ reactions were performed using either extruded liposome (DGKα and DGKζ LIPGLO assays) or detergent/lipid micelle substrate (DGKα and DGKζ assays). The reactions were carried out in 50 mM MOPS pH 7.5, 100 mM NaCl, 10 mM MgCl2, 1 μM CaCl2, and 1 mM DTT (assay buffer). The reactions using a detergent/lipid micelle substrate also contained 50 mM octyl B-D-glucopyranoside. […] The lipid substrate concentrations were […], 0.25 mM DAG, and 2.75 mM PC for the extruded liposome reactions.
(§2) The compound inhibition studies were carried out as follows: 50 nL droplets of each test compound (top concentration 10 mM with 11 point, 3-fold dilution series for each compound) solubilized in DMSO were transferred to wells of a white 1536 well plate (Corning 3725). A 5 mL enzyme/substrate solution at 2× final reaction concentration was prepared by combining 2.5 mL 4× enzyme solution (20 nM DGKα or DGKζ (prepared as described below) in assay buffer) and 2.5 mL of either 4× liposome or 4× detergent/lipid micelle solution (compositions described below) and incubated at room temperature for 10 minutes. Next, 1 μL 2× enzyme/substrate solution was added to wells containing the test compound and reactions were initiated with the addition of 1 μL 300 uM ATP. The reactions were allowed to proceed for 1 hr, after which 2 μL Glo Reagent (Promega V9101) was added and incubated for 40 minutes. Next, 4 μL Kinase Detection Reagent was added and incubated for 30 minutes. Luminescence was recorded using an EnVision microplate reader. […] The compounds were evaluated at 11 concentrations to determine IC50.
(§3) The PC, DAG, and PS were dissolved in chloroform, combined, and dried in vacuo to a thin film. The lipids were hydrated to 20 mM in 50 mM MOPS pH 7.5, 100 mM NaCl, 5 mM MgCl2, and were freeze-thawed five times. The lipid suspension was extruded through a 100 nm polycarbonate filter eleven times. […] The liposome preparation was stored at 4° C. for as long as four weeks.
Human DGK-alpha-TVMV-His-pFBgate and human DCK-zeta-transcript variant-2-TVMV-His-pFBgate baculovirus samples were generated using the Bac-to-Bac baculovirus expression system (Invitrogen) according to the manufacturer's protocol. The DNA used for expression of DGK-alpha and DGK-zeta have SEQ ID NOs: 1 and 3, respectively. Baculovirus amplification was achieved using infected Sf9 cells at 1:1500 virus/cell ratios, and grown for 65 hours at 27° C. post-transfection.
(§4) The expression scale up for each protein was carried out in the Cellbag 50 L WAVE-Bioreactor System 20/50 from GE Healthcare Bioscience. 12 L of 2×10^6 cells/mL Sf9 cells (Expression System, Davis, Calif.) grown in ESF921 insect medium (Expression System) were infected with virus stock at 1:200 virus/cell ratios, and grown for 66-68 hours at 27° C. post-infection. The infected cell culture was harvested by centrifugation at 2000 rpm for 20 min 4° C. in a SORVALL® RC12BP centrifuge. The cell pellets were stored at −70° C. until purification.
Full length human DGKα and DGKζ, each expressed containing a TVMV-cleavable C-terminal Hexa-His tag sequence (SEQ ID NOs: 2 and 4, respectively) and produced as described above, were purified from Sf) baculovirus-infected insect cell paste. The cells were lysed using nitrogen cavitation method with a nitrogen bomb (Parr Instruments), and the lysates were clarified by centrifugation. […] The three steps column chromatography included nickel affinity resin capture (i.e. HisTrap FF crude, GE Healthcare), followed by size exclusion chromatography (i.e. HiLoad 26/600 Superdex 200 prep grade, GE Healthcare for DGK-alpha, and HiPrep 26/600 Sephacryl S 300_HR, GE Healthcare for DGK-zeta). The third step was ion exchange chromatography, and differed for the two isoforms.

[3] = test system: pre-activated CD4 T cells and Raji cells; experiment: Raji CD4 T Cell IL2 Assay; type: cell-based
human DGKζ [4] = molecular target: T1, human DGKζ; experiment: DGKζ LIPGLO assay (extruded liposome substrate); type: biochemical; settings: extruded liposome substrate; read-out: DGKζ LIPGLO IC50
Method: The DGKα and DGKζ reactions were performed using either extruded liposome (DGKα and DGKζ LIPGLO assays) or detergent/lipid micelle substrate (DGKα and DGKζ assays). The reactions were carried out in 50 mM MOPS pH 7.5, 100 mM NaCl, 10 mM MgCl2, 1 μM CaCl2, and 1 mM DTT (assay buffer). The reactions using a detergent/lipid micelle substrate also contained 50 mM octyl B-D-glucopyranoside.
as §2, with “A” for “The compound inhibition studies were carried out as follows: 50 nL droplets of each test compound (top concentration 10 mM with 11 point, 3-fold dilution series for each compound) solubilized in DMSO were transferred to wells of a white 1536 well plate (Corning 3725). A”
as §3
Baculovirus amplification was achieved using infected Sf9 cells at 1:1500 virus/cell ratios, and grown for 65 hours at 27° C. post-transfection.
as §4
The cells were lysed using nitrogen cavitation method with a nitrogen bomb (Parr Instruments), and the lysates were clarified by centrifugation. […] The three steps column chromatography included nickel affinity resin capture (i.e. HisTrap FF crude, GE Healthcare), followed by size exclusion chromatography (i.e. HiLoad 26/600 Superdex 200 prep grade, GE Healthcare for DGK-alpha, and HiPrep 26/600 Sephacryl S 300_HR, GE Healthcare for DGK-zeta). The third step was ion exchange chromatography, and differed for the two isoforms. DGKα was polished using Q-Sepharose anion exchange chromatography (GE Healthcare). DGKζ was polished using SP Sepharose cation exchange chromatography (GE Healthcare). The proteins were delivered at concentrations of ≥2 mg/mL. The formulation buffers were identical for both proteins: 50 mM Hepes, pH 7.2, 500 mM NaCl, 10% v/v glycerol, 1 mM TCEP, and 0.5 mM EDTA.

human DGKα [5] = molecular target: T2, human DGKα; experiment: biochemical; settings: detergent/lipid micelle substrate; read-out: DGKα IC50
Method in brief: as §1

T1 sequence (Q13574 other isoform, or with tags, fused parts or gaps): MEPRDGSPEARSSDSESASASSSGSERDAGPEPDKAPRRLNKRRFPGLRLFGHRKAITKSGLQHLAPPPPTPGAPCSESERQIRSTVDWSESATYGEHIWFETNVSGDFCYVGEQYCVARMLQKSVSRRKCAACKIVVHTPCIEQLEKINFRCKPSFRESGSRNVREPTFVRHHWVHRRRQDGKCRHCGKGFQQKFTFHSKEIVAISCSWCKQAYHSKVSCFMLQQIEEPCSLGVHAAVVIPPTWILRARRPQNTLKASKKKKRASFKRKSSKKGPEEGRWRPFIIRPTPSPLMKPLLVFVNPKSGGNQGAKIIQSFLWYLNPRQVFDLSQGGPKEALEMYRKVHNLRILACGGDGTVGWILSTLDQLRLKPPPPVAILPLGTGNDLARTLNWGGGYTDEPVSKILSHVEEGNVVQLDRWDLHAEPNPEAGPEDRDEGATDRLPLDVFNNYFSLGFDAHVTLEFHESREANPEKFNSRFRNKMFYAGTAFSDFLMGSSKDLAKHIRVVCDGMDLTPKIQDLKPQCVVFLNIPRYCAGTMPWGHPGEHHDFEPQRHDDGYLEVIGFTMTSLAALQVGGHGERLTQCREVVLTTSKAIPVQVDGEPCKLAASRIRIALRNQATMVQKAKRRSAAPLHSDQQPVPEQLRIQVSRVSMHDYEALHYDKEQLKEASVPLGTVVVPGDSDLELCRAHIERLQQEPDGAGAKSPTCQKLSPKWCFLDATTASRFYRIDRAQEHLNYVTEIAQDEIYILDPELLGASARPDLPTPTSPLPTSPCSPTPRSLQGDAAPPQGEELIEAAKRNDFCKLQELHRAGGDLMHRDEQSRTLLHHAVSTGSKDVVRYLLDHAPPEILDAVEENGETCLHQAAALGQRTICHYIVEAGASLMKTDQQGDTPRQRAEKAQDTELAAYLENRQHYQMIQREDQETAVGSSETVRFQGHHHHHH

Compound: COc1ccccc1C(c1ccc(F)cc1)N1CCN(c2c(C#N)c(=O)n(C)c3ccc(Br)nc23)CC1 (single isomer, unassigned) [Example 14, 6-bromo-4-{4-[(4-fluorophenyl)(2-methoxyphenyl)methyl]piperazin-1-yl}-1-methyl-2-oxo-1,2-dihydro-1,5-naphthyridine-3-carbonitrile]
- IC50 (human DGKζ [1]): > 240 µM
- IC50 (human DGKα [2]): 4.7 µM
- IC50 [3]: 0.026 µM
- IC50 (human DGKζ [4]): 3.2 µM
- IC50 (human DGKα [5]): 1.2 µM

Compound: COc1cc(F)ccc1C(c1ccc(F)cc1)N1CCN(c2c(C#N)c(=O)n(C)c3ccc(Br)nc23)CC1 (single isomer, unassigned) [Example 16, 6-bromo-4-{4-[(4-fluoro-2-methoxyphenyl)(4-fluorophenyl)methyl]piperazin-1-yl}-1-methyl-2-oxo-1,2-dihydro-1,5-naphthyridine-3-carbonitrile]
- IC50 (human DGKζ [1]): > 240 µM
- IC50 (human DGKα [2]): 4.3 µM
- IC50 ([3]; Homo sapiens, Raji): 0.021 µM
- IC50 (human DGKζ [4]): 27 µM
- IC50 (human DGKα [5]): 6.4 µM

Compound: CC(c1ccc(F)cc1)N1CCN(c2c(C#N)c(=O)n(C)c3ccc(Br)nc23)CC1 (single isomer, unassigned) [Example 23, 6-bromo-4-{4-[1-(4-fluorophenyl)ethyl]piperazin-1-yl}-1-methyl-2-oxo-1,2-dihydro-1,5-naphthyridine-3-carbonitrile]
- IC50 (human DGKζ [1]): > 240 µM
- IC50 (human DGKα [2]): 1.9 µM
- IC50 [3]: 0.041 µM
- IC50 (human DGKζ [4]): 13 µM
- IC50 (human DGKα [5]): 0.61 µM

Compound: CC(c1ccc(F)cc1)N1CCN(c2c(C#N)c(=O)n(C)c3ccc(Br)nc23)CC1 (single isomer, unassigned) [Example 24, 6-bromo-4-{4-[1-(4-fluorophenyl)ethyl]piperazin-1-yl}-1-methyl-2-oxo-1,2-dihydro-1,5-naphthyridine-3-carbonitrile]
- IC50 (human DGKζ [1]): > 240 µM
- IC50 (human DGKα [2]): 0.15 µM
- IC50 [3]: 0.012 µM
- IC50 (human DGKζ [4]): 90 µM
- IC50 (human DGKα [5]): 0.034 µM

Compound: COc1ccc2c(n1)c(N1CCN(C(c3ccc(F)cc3)c3ccccc3O)CC1)c(C#N)c(=O)n2C (centres unmarked) [Example 104, 4-(4-((4-fluorophenyl)(2-hydroxyphenyl)methyl)piperazin-1-yl)-6-methoxy-1-methyl-2-oxo-1,2-dihydro-1,5-naphthyridine-3-carbonitrile]
- IC50 (human DGKα [2]): 0.74 µM
- IC50 ([3]; Homo sapiens, Raji): 0.44 µM
- IC50 (human DGKζ [4]): 0.78 µM

Compound: O=c1c([N+](=O)[O-])c(N2CCN(C(c3ccccc3)c3ccccc3)CC2)c2ncccc2n1CCC1OCCCO1 [Example 166, 1-(2-(1,3-dioxan-2-yl)ethyl)-4-(4-benzhydrylpiperazin-1-yl)-3-nitro-1,5-naphthyridin-2(1H)-one]
- IC50 (human DGKα [2]): 210 µM
- IC50 ([3]; Homo sapiens, Raji): 3.8 µM
- IC50 (human DGKζ [4]): 230 µM

Compound: C=CCn1c(=O)c([N+](=O)[O-])c(N2CCN(C(c3ccccc3)c3ccccc3)CC2)c2ncccc21 [Example 176, 1-all-4-(4-benzhydrylpiperazin-1-yl)-3-nitro-1,5-naphthyridin-2(1H)-one]
- IC50 (human DGKα [2]): > 240 µM
- IC50 ([3]; Homo sapiens, Raji): 3 µM
- IC50 (human DGKζ [4]): 27 µM

Compound: Cc1ccc2c(n1)c(N1CCN(C(c3ccc(F)cc3)c3ccc(F)cc3)CC1)c(C(=O)C(F)(F)F)c(=O)n2C [Example 228, 4-(4-(bis(4-fluorophenyl)methyl)piperazin-1-yl)-1,6-dimethyl-3-(2,2,2-trifluoroacetyl)-1,5-naphthyridin-2(1H)-one]
- IC50 (human DGKζ [1]): > 240 µM
- IC50 (human DGKα [2]): > 240 µM
- IC50 ([3]; Homo sapiens, Raji): 0.11 µM
- IC50 (human DGKζ [4]): 9.7 µM

Compound: Cn1c(=O)c([N+](=O)[O-])c(N2CCN(C(C)(C)c3ccc(F)cc3)CC2)c2nc(C#N)ccc21 [Example 260, 8-{4-[2-(4-fluorophenyl)propan-2-yl]piperazin-1-yl}-5-methyl-7-nitro-6-oxo-5,6-dihydro-1,5-naphthyridine-2-carbonitrile]
- IC50 (human DGKα [2]): 1.6 µM
- IC50 ([3]; Homo sapiens, Raji): 0.018 µM
- IC50 (human DGKζ [4]): 5.3 µM
- IC50 (human DGKα [5]): 0.35 µM

Compound: Cn1c(=O)c(C#N)c(N2CCN(Cc3ccc(F)cc3)CC2)c2nc(Cl)ccc21 [Example 308, 6-chloro-4-{4-[(4-fluorophenyl)methyl]piperazin-1-yl}-1-methyl-2-oxo-1,2-dihydro-1,5-naphthyridine-3-carbonitrile]
- IC50 (human DGKα [2]): 0.95 µM
- IC50 ([3]; Homo sapiens, Raji): 0.21 µM
- IC50 (human DGKζ [4]): 13 µM
- IC50 (human DGKα [5]): 0.19 µM

Compound: CCn1ccc2c(CN3CCN(c4c(C#N)c(=O)n(C)c5cccnc45)CC3)cccc21 [Example 334, 4-{4-[(1-ethyl-1H-indol-4-yl)methyl]piperazin-1-yl}-1-methyl-2-oxo-1,2-dihydro-1,5-naphthyridine-3-carbonitrile]
- IC50 (human DGKα [2]): 1.7 µM
- IC50 ([3]; Homo sapiens, Raji): 0.54 µM
- IC50 (human DGKζ [4]): 27 µM

Compound: Cn1c(=O)c(C#N)c(N2CCN(C(c3ccccc3)c3ccccc3O)CC2)c2ncccc21 (centres unmarked) [Example 349, 4-{4-[(2-hydroxyphenyl)(phenyl)methyl]piperazin-1-yl}-1-methyl-2-oxo-1,2-dihydro-1,5-naphthyridine-3-carbonitrile]
- IC50 (human DGKα [2]): 1.3 µM
- IC50 ([3]; Homo sapiens, Raji): 1.4 µM
- IC50 (human DGKζ [4]): 32 µM

Compound: Cn1c(=O)c(C#N)c(N2CCN(C(c3ccccc3)c3ccccc3)CC2)c2nc(Cl)ccc21 [Example 358, 6-chloro-4-[4-(diphenylmethyl)piperazin-1-yl]-1-methyl-2-oxo-1,2-dihydro-1,5-naphthyridine-3-carbonitrile]
- IC50 (human DGKα [2]): > 240 µM
- IC50 ([3]; Homo sapiens, Raji): 6.5 µM
- IC50 (human DGKζ [4]): > 240 µM

Compound: Cn1c(=O)cc(N2CCN(C(c3ccc(F)cc3)c3ccc(F)cc3)CC2)c2ncccc21 [Example 426, 4-(4-(bis(4-fluorophenyl)methyl)piperazin-1-yl)-1-methyl-1,5-naphthyridin-2(1H)-one]
- IC50 (human DGKα [2]): 170 µM
- IC50 ([3]; Homo sapiens, Raji): 20 µM
- IC50 (human DGKζ [4]): > 240 µM
